Where a SMILES comes first, the peptide text is derived from it.
Experiments:
[1] = Endpoint cleavage of AF594-C2TCO-AF594 with tetrazines (HPLC, fluorescence detection); details: 15 + excess tetrazine, buffered solution pH 7.4, endpoint 24 h
Experimental: As an initial assessment of cleavage efficiency, 15 was reacted with an excess of selected tetrazines in buffered solution at pH 7.4 and analyzed the reaction mixtures at an endpoint of 24 h by HPLC with fluorescence detection. […] One hypothesis is that this is not only due to slow tautomerization, but also limited elimination of the respective B1/B2 intermediate. The inability to achieve complete release with Pyr2Tz highlights the advantages of a cleavage directing group.
Release measurements with AF594-C2TCO-AF594: Analytical stock solutions and buffers. 10 mM stock solutions of the release probe AF594-C2TCO-AF594 was prepared and further diluted with citrate-phosphate buffer (as indicated below), so that the final concentration of DMSO in buffer was never higher than 2%. Tetrazine stock solutions were prepared in DMSO at concentrations ranging from 10-100 mM and diluted with citrate-phosphate buffer (as indicated below), so that the final concentration of DMSO in buffer was never higher than 2%. […]
Endpoint measurements with AF594-C2TCO-AF594. […] The released AF594-amine was detected using an RF-20Axs fluorescence detector and confirmed by a LCMS-2020 mass spectrometer (ESI) implemented in the Nexera X2® UHPLC system.

[2] = Release from rTCO-AlexaFluor 350 conjugate monitored by LCMS; details: Tz 200 μM, 7 125 μM, pH 7, 25° C.; PyrMe within ~8 hours, PyrPA initial fast phase
Experimental: Similar to the previous study (Carlson et al.), an rTCO-AlexaFluor 350 conjugate was used (7, FIG. 5) to further investigate the release step. Reactions were carried out in buffered aqueous solution at pH 7 and 25° C., selecting concentrations of PyrMe or PyrPA (200 μM) and 7 (125 μM) such that the click reaction was done in less than 4 minutes, allowing temporal monitoring of post-click reactions by LCMS. With PyrMe, slow monophasic release was observed that reached a yield of approximately 50% within ˜8 hours. […] To verify these hypotheses, PyrMe was reacted with rTCO-glycine, the release reaction was allowed to proceed to completion, and the non-releasing isomer was then isolated. […] This key finding is in line with the observations of Sarris et al., who achieved approx. 80% release with PymK (3) and invoked the preferred formation of the releasing adduct with the ethylammonium moiety in head-to-head position. (due to pre-click interaction of NH3^+ with the carbamate functionality of the leaving group) to explain this increased conversion.

[3] = in vivo; cited from earlier work
[4] = Second order rate constants of tetrazines with PEGylated rTCO 6; details: reaction with PEGylated rTCO 6
[5] = Stability of C2TCO in full cell growth media, titration with DMT; type: in vitro ADME; details: full cell growth media (10% FBS), 37° C., up to 48 h
From the text: C2TCO can be incorporated into probes that bind to intracellular targets.

c1ccc(-c2nnc(-c3ccccn3)nn2)nc1 [Pyr2Tz, 3,6-bis(2-pyridyl)tetrazine]
cleavage [1]: 23%

O=C(O)CCc1nnc(-c2ccccn2)nn1 [PyrPA]
release yield [2]: very similar release yield

N=C(N)NCCCC[C@@H]1NC(=O)CCSSC[C@@H](C(N)=O)NC(=O)[C@@H]2CCCN2C(=O)[C@H](Cc2c[nH]c3ccccc23)NC(=O)[C@H](CC(=O)O)NC(=O)CNC1=O [Eptifibatide] (HELM PEPTIDE1{[O=C(CCS[*:3])[*:2]].[N=C(N)NCCCC[C@H](N[*:1])C(=O)[*:2]].G.D.W.P.C.[am]}$PEPTIDE1,PEPTIDE1,1:R3-7:R3$$$V2.0)
half-life [3]: 3 to 4 h

alteplase: widely-used tPA thrombolytic
clearance t1/2 [3]: about 5 min

Cc1nnc(C)nn1 [DMT]
cleavage [1]: Nearly complete cleavage

Cc1nnc(-c2ccccn2)nn1 [PyrMe]
rate enhancement vs. DMT [4]: up to 12 fold | release yield [2]: approximately 50%

OC1/C=C/C(O)CCCC1 (stereo not drawn) [C2TCO, anti-cyclooct-2-ene-1,4-diol]
stability (intact C2TCO) [5]: > 97%

Source: patent US20240058455A1, “BIOORTHOGONAL LINKERS AND REACTIONS” (The General Hospital Corporation, priority 2020, published 2024)
